Measurements as given in patent publication US20060019885A1, “Modified bryodin 1 with reduced immunogenicity” (priority 2002, published 2006).

Test system: peripheral blood mononuclear cells (PBMCs), containing antigen presenting cells (APCs) and T-cells
Test: naïve human T-cell proliferation assay (3H-thymidine incorporation, stimulation index)
Format: cell-based
Conditions: for predicted ranking of the most immunodominant regions: from numbers of responding naïve donors and crystallographic B-factor analysis; for number of donor samples reactive / percent of donor samples reactive: of 21 naïve donor PBMC samples, positive response SI>2
Description: This approach has proven to be a particularly effective method and is disclosed herein as an embodiment of the invention. The method can be applied to test part of the sequence, for example a sub-set of bryodin 1 peptides such as all or some of those listed in FIG. 1; or the method may be applied to test entire sequence. In the present studies, the method has involved the testing of overlapping bryodin 1 derived peptide sequences in a scheme so as to scan and test the entire bryodin 1 sequence (including peptides representing the N-terminal pro-pepeptide). The synthetic peptides are tested for their ability to evoke a proliferative response in human T-cell cultured in vitro. Where this type of approach is conducted using naïve human T-cells taken from healthy donors, the inventors have established that in the operation of such an assay, a stimulation index equal to or greater than 2.0 is a useful measure of induced proliferation. The stimulation index is conventionally derived by division of the proliferation score (e.g. counts per minute of radioactivity if using ^3H-thymidine incorporation) measured to the test peptide by the score measured in cells not contacted with a test peptide.
The interaction between MHC, peptide and T-cell receptor (TCR) provides the structural basis for the antigen specificity of T-cell recognition. T-cell proliferation assays test the binding of peptides to MHC and the recognition of MHC/peptide complexes by the TCR. In vitro T-cell proliferation assays of the present example, involve the stimulation of peripheral blood mononuclear cells (PBMCs), containing antigen presenting cells (APCs) and T-cells. Stimulation is conducted in vitro using synthetic peptide antigens, and in some experiments whole protein antigen. Stimulated T-cell proliferation is measured using ^3H-thymidine (^3H-Thy) and the presence of incorporated ^3H-Thy assessed using scintillation counting of washed fixed cells.
Buffy coats from human blood stored for less than 12 hours were obtained from the National Blood Service (Addenbrooks Hospital, Cambridge, UK). Ficoll-paque was obtained from Amersham Pharmacia Biotech (Amersham, UK). Serum free AIM V media for the culture of primary human lymphocytes and containing L-glutamine, 50 μg/ml streptomycin, 10 μg/ml gentomycin and 0.1% human serum albumin was from Gibco-BRL (Paisley, UK). Synthetic peptides were obtained from Eurosequence (Groningen, The Netherlands) and Babraham Technix (Cambridge, UK).
Erythrocytes and leukocytes were separated from plasma and platelets by gentle centrifugation of buffy coats. The top phase (containing plasma and platelets) was removed and discarded. Erythrocytes and leukocytes were diluted 1:1 in phosphate buffered saline (PBS) before layering onto 15 ml ficoll-paque (Amersham Pharmacia, Amersham UK). Centrifugation was done according to the manufacturers recommended conditions and PBMCs were harvested from the serum+PBS/ficoll paque interface. PBMCs were mixed with PBS (1:1) and collected by centrifugation. The supernatant was removed and discarded and the PBMC pellet resuspended in 50 ml PBS. Cells were again pelleted by centrifugation and the PBS supernatant discarded. Cells were resuspended using 50 ml AIM V media and at this point counted and viability assessed using trypan blue dye exclusion. Cells were again collected by centrifugation and the supernatant discarded. Cells were resuspended for cryogenic storage at a density of 3×10^7 per ml. The storage medium was 90% (v/v) heat inactivated AB human serum (Sigma, Poole, UK) and 10% (v/v) DMSO (Sigma, Poole, UK). Cells were transferred to a regulated freezing container (Sigma) and placed at −70° C. overnight. When required for use, cells were thawed rapidly in a water bath at 37° C. before transferring to 10 ml pre-warmed AIM V medium.
PBMC were stimulated with protein and peptide antigens in a 96 well flat bottom plate at a density of 2×10^5 PBMC per well. […]

Row | Sequence | predicted ranking of the most immunodominant regions | number of donor samples reactive [donor samples] | percent of donor samples reactive
1 | ATEAAKFVFKDAKKK [R2] | relatively less immunogenic | 3 | 14%
2 | ATISLENNWSALSKQIQIAST [R5] | most immunogenic | 4 | 19%
3 | ERLQTAAGKIRENIPLGLPALDSA [R3] | – | 3 | 14%
4 | ITTLYYYTASSAASALLVLIQSTAESA [R4] | – | 5 | 24%
5 | RYTLLHLTNYADETISVAVDV [R1] | most immunogenic | 6 | over 28%
